Experimental data reported in patent US6852686B2, “Methods for ameliorating icthyosiform skin diseases” (The United States of America as represented by the …, priority 1999, dated 2005).
“Also recorded” adds a separate entry of the source. Blank lines part the entries; values can stand above or below the molecule they belong to.

Key:
TGase 1 = molecular target: T1, TGase 1 (Homo sapiens, UniProt P22735); experiment: Lipid Z esterification of involucrin by TGase 1 on SLV; assay type: biochemical; conditions: for involucrin-lipid adduct formation by TGase 1 on SLV membranes: ceramide incorporated in SLV
T1 construct: Recombinant full-length human TGase 1 and TGase 3 enzymes were expressed in Sf9 cells by the BaculoGold system; made in house; host or cells: Sf9 insect cells, BaculoGold baculovirus system, pVL1392 vector
T1 sequence (P22735 1-817): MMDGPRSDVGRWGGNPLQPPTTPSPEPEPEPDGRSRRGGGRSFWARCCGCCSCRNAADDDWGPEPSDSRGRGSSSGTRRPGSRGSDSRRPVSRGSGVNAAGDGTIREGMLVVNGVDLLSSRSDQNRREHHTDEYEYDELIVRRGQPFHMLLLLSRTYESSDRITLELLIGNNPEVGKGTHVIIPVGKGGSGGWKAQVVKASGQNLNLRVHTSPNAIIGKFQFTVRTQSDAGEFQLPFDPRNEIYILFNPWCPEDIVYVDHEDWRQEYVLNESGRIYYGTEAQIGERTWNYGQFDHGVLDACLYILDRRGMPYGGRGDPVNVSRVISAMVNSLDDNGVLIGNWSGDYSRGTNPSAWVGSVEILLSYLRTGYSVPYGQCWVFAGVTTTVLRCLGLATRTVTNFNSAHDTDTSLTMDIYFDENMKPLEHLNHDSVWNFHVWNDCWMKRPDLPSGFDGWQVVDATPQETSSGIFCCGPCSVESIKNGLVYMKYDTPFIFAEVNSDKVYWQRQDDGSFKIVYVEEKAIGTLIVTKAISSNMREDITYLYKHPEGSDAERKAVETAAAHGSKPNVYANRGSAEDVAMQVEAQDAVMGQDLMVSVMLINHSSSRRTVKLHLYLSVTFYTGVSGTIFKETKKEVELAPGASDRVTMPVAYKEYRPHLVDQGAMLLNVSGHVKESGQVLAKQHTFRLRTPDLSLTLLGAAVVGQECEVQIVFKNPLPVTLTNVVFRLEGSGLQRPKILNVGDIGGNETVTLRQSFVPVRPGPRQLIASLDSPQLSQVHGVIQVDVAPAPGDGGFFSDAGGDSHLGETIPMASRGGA
Description: A mixture of 54 mol % dimyristoyl-phosphatidylcholine, 15 mol % dipalmitoyl-phosphatidylserine, 30 mol % cholesterol (all from Sigma, St. Louis, Mo.) and 1 mol % lipid Z was made in chloroform: methanol (9:1). This solution was dried down, taken up in aqueous buffer and dispersed by sonication as before (Nemes et al., J. Biol. Chem., 274: in press (1999)). The SLV suspension was equipped with TGase 1 enzyme by incubation at 37° C. for 15 min prior to adding substrates.
The reactions were stopped by the addition of EDTA to 10 mM.
Following reaction, 0.1 ml 20% SDS in water was added to the samples and the mixture was vortexed. This mixture was precipitated and washed three times with acetone-triethylamine-acetic acid (90:5:5) to remove the SDS and the unbound lipids (Konigsberg, W. H. and L. Henderson, Meth. Enzymol., 91: 254-259 (1983), herein expressly incorporated by reference in its entirety). After further washing with acetone the pellet was dried under vacuum and redissolved in 50 mM Tris-HCl (pH 7.5). Resolubilized protein was digested for 16 h with 2 mol % modified trypsin (Boehringer Mannheim). Peptides were resolved on a 250×2 mm PrimesphereC4 HPLC column (Phenomenex) and separated using a gradient elution from 75% buffer A (0.1% TFA in water) to 75% buffer B (50% 2-propanol in acetonitrile) in 40 min. Under these conditions, lipo-peptides were retarded but free peptides elute with the solvent front (Marekov, L. N. and P. M. Steinert, J. Biol. Chem., 273: 17763-17770 (1998), herein expressly incorporated by reference in its entirety).
Amino acid analysis of hydrolyzed samples (5.7 N HCl at 110° C. for 24 h in vacuo) was used to routinely measure amounts of lipo-peptides. Aliquots of isolated lipo-peptide peaks were attached to a solid support for sequencing (Marekov, L. N. and P. M. Steinert, J. Biol. Chem., 273: 17763-17770 (1998), herein expressly incorporated by reference in its entirety). Saponification of lipo-peptides was done with 1 N KOH in 80% methanol for 2 h at 37° C., after which the solution was acidified, dried and peptides were recovered by HPLC on a C18 column.

[1] = test system: synthetic lipid vesicles (SLV); experiment: Membrane association (binding) to synthetic lipid vesicles, SLV pelleted by ultracentrifugation; conditions: for effect on Ca++-induced binding of involucrin to SLVs: added to buffer, SLVs with 15 mol % PS; for effect on involucrin binding to SLV when substituted for PS: SLV containing 8% PS plus 0-20% of the anionic phospholipid; for binding to SLV: SLV with 0 or 15% PS, with or without free Ca++
Description: Mixtures of dipalmitoyl-phosphatidylcholine, cholesterol, dipalmitoyl-phosphatidylserine (PS) and other lipids where indicated (all from Sigma, St. Louis, Mo.) were made in chloroform-methanol (95:5). In all cases, the mixtures contained 30% cholesterol. When the amounts of PS or other individual components were varied, phosphatidylcholine was added to make the mixture to 100%. Mixtures were made in 0.5 ml and contained 10 μmol of total lipids. The solvent was flushed away under a stream of N2, dried further under high vacuum for 4 h and then resuspended by vortexing in 0.5 ml of a buffer containing 50 mM Tris-Cl (pH 8.0), 100 mM NaCl, 3 mM NaN3, 5 mM DTT, and 200 mM sucrose. The mixture was sonicated on ice five times each for 1 min using a Branson 250 sonifier with micro probe tip, and allowed to stand at 23° C. to facilitate assembly of SLV. After 1 h the SLV were diluted with 0.5 ml of the above buffer without sucrose, and 200 μl aliquots were centrifuged at 100,000× g for 30 min in a Beckman Airfuge using the A-10 rotor. The top 175 μl was removed, and the pellet resuspended in another 150 μl of sucrose-free buffer. The final stock concentration was 11 μmol/ml.
In all cases, the buffer contained 50 mM Tris-HCl (pH 8.0), 100 mM NaCl, 1 mM DTT, 3 mM NaN3, and other additives where noted. Some mixtures also contained 1 mM CaCl2 or 2 mM EDTA. After mixing, the samples were centrifuged for 45 min at 100,000× g, and the protein content from 50 μl of supernatant was determined by amino acid analysis after acid hydrolysis. Data were usually not corrected for loss of SLV lipids, as in control experiments, cumulated losses were <4% as assayed by ^14C-phosphatidylcholine tracer, and thus neglected from the calculations.
The Ca^++ concentrations in the μM range were set by buffering free Ca^++ with chelators The desired Ca^++/chelator ratios were calculated by the WinMaxC 1.7 computer program (Bers, et al., Methods in Cell Biology Vol 40: A Practical Guide to the Study of Ca^2+ in Living Cells, Nuccitelli, R., ed., pp. 1-327 (1994), herein expressly incorporated by reference in its entirety), and were made by adding the required amounts of 1 M CaCl2 to 0.2 M stock solutions of the following chelators at pH 8.0. Final chelator concentrations in the samples were 10 mM in all cases. Sodium citrate was the chelator for the 20-500 μM Ca^++ range; sodium nitrilotriacetate for the 1-20 μM Ca^++ range; and sodium 1,2-bis(aminophenoxy)ethane-N,N,N′,N′ tetraacetate for the 0.1-1 μM Ca^++ range.

Molecule: palmitoylsphingosine
involucrin-lipid adduct formation by TGase 1 on SLV membranes (TGase 1): no involucrin-adduct formation was observed

Molecule: NCCSSCCN [cystamine]
inhibition of lipid Z esterification (TGase 1; 20 mM cystamine): significantly reduced; also recorded: completely inhibited

Molecule: O=C(O)CN(CCN(CC(=O)O)CC(=O)O)CC(=O)O [EDTA]
effect on Ca++-induced binding of involucrin to SLVs [1]: completely reversible
inhibition of lipid Z esterification (TGase 1; EDTA present (5 mM elsewhere in the source)): no lipo-peptides were recovered; also recorded: completely inhibited

Molecule: O=C(O)CN(CCOCCOCCN(CC(=O)O)CC(=O)O)CC(=O)O [EGTA, reference compound]
effect on Ca++-induced binding of involucrin to SLVs [1]: completely reversible

Molecule: 16-hydroxypalmitoylsphingosine
involucrin-lipid adduct formation by TGase 1 on SLV membranes (TGase 1): no involucrin-adduct formation was observed

Molecule: CCCCCCO [1-hexanol]
inhibition of formation of lipid Z ester (TGase 1; up to 2% 1-hexanol): did not significantly (p=0.05) inhibit

B2: TGase 3: recombinant full-length human TGase 3, activated with dispase (protein, UniProt Q08188 1-693, looked up)
chain: MAALGVQSINWQTAFNRQAHHTDKFSSQELILRRGQNFQVLMIMNKGLGSNERLEFIVSTGPYPSESAMTKAVFPLSNGSSGGWSAVLQASNGNTLTISISSPASAPIGRYTMALQIFSQGGISSVKLGTFILLFNPWLNVDSVFMGNHAEREEYVQEDAGIIFVGSTNRIGMIGWNFGQFEEDILSICLSILDRSLNFRRDAATDVASRNDPKYVGRVLSAMINSNDDNGVLAGNWSGTYTGGRDPRSWNGSVEILKNWKKSGFSPVRYGQCWVFAGTLNTALRSLGIPSRVITNFNSAHDTDRNLSVDVYYDPMGNPLDKGSDSVWNFHVWNEGWFVRSDLGPSYGGWQVLDATPQERSQGVFQCGPASVIGVREGDVQLNFDMPFIFAEVNADRITWLYDNTTGKQWKNSVNSHTIGRYISTKAVGSNARMDVTDKYKYPEGSDQERQVFQKALGKLKPNTPFAATSSMGLETEEQEPSIIGKLKVAGMLAVGKEVNLVLLLKNLSRDTKTVTVNMTAWTIIYNGTLVHEVWKDSATMSLDPEEEAEHPIKISYAQYEKYLKSDNMIRITAVCKVPDESEVVVERDIILDNPTLTLEVLNEARVRKPVNVQMLFSNPLDEPVRDCVLMVEGSGLLLGNLKIDVPTLGPKEGSRVRFDILPSRSGTKQLLADFSCNKFPAIKAMLSIDVAE
modifications: full-length activated by dispase cleavage
binding to SLV [1]: unable to associate with an SLV of any composition tested

The next lines start with results.

inhibition of ester formation of each reactive Gln residue (TGase 1; 1 mM putrescine included in the reaction): 2-3 fold
Molecule: NCCCCN [Putrescine, putrescine]
reduction in ester yields (TGase 1; 20 mM putrescine added at 45 min, compared to 1 h levels): significantly (p<0.01) reduced; also recorded: about a two-fold and time dependent reduction

effect on Ca++-induced binding of involucrin to SLVs [1]: did not support the binding
Molecule: [Mg+2] [magnesium]

effect on involucrin binding to SLV when substituted for PS [1]: did not enhance binding
Molecule: phosphatidic acid [reference compound]

effect on involucrin binding to SLV when substituted for PS [1]: did not enhance binding
Molecule: phosphatidyl inositol [reference compound]

effect on involucrin binding to SLV when substituted for PS [1]: did not enhance binding
Molecule: phosphatidyl glycerol [reference compound]

binding to SLV [1]: unable to directly attach to SLV
B1: loricrin: recombinant human CE protein (protein, UniProt P23490 1-312, looked up)
Loricrin: MSYQKKQPTPQPPVDCVKTSGGGGGGGGSGGGGCGFFGGGGSGGGSSGSGCGYSGGGGYSGGGCGGGSSGGGGGGGIGGCGGGSGGSVKYSGGGGSSGGGSGCFSSGGGGSGCFSSGGGGSSGGGSGCFSSGGGGSSGGGSGCFSSGGGGFSGQAVQCQSYGGVSSGGSSGGGSGCFSSGGGGGSVCGYSGGGSGCGGGSSGGSGSGYVSSQQVTQTSCAPQPSYGGGSSGGGGSGGSGCFSSGGGGGSSGCGGGSSGIGSGCIISGGGSVCGGGSSGGGGGGSSVGGSGSGKGVPICHQTQQKQAPTWPSK
